A value given as a limit tells only on which side of the number the result lay.

T1 sequence (Q05397 422-680 limits assumed): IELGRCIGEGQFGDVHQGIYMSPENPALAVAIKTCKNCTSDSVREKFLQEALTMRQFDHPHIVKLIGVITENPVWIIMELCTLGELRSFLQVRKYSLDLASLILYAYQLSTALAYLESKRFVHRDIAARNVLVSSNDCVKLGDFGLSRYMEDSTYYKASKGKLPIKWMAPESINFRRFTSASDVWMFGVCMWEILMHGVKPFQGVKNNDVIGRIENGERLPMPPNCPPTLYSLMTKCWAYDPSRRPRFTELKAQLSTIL

This assay addresses T1, recombinant human FAK1 (Homo sapiens, UniProt Q05397).
T1 construct: fused on or other part: N-terminal 6xHis tag
Kind of assay: FAK1 HTRF assay. It is filed as biochemical. As to the method:
Active FAK1 was prepared for use in the Homogeneous Time-Resolved Fluorescence (HTRF) assay. Briefly, N-terminal 6 His tagged recombinant human FAK1, from residue 692-end (GenBank accession no. L13616) was expressed by Bacculovirus in sf9 cells. […] A 1.6 mg/mL (45 μM) stock was used in the HTRF assay at a final concentration of 10 nM.
Gastrin precursor (tyr87) biotinylated peptide which contains the residues surrounding tyrosine 87 (EEAY*GWM) of gastrin precursor was obtained (Cell Signaling Tech, Item no. 1310, Lot 7). The peptide was provided at a stock concentration of 6 μM, and used a final concentration of 0.5 μM in the HTRF assay.
10 mM stock in 100 μL Enzyme assay buffer pH7.4 was prepared freshly and used at a final concentration of 10 μM in the assay.
Powders were dissolved in 100% DMSO to a final stock concentration of 10 mM. The volume needed (in μL) to add for 10 mM=mg powder is 10^5/MW of compound. The final compound concentration in the assay plate started at 10 μM.
Pfizer FAK inhibitor PF-562271 (N-methyl-N-(3-(((2-((2-oxoindolin-5-yl)amino)-5-(trifluoromethyl)pyrimidin-4-yl)amino)methyl)pyridin-2-yl)methanesulfonamide) was prepared as per the reported procedure from US Patent Publication No. 2005/256145A1.
Streptavidin-Allophycocyanin was obtained (Prozyme, Cat. No. PJ25S. SA-APC was provided at a stock concentration of 2.06 mg/mL, where APC concentration was 11.6 μM and the streptavidin concentration was 15.5 μM. SA-APC was used at a final concentration of 12 nM in the assay (based on streptavidin concentration).
This reagent was obtained from Perkin ElmerAD0068. Europium-W1024-PT-66 Anti Phospho Tyrosine Ab is a monoclonal IgG1 that recognizes phospho tyrosine peptide. 100 μg/mL stock was used at a final concentration of 0.1 nM in the assay.
• 1. The compound dilutions were made by TECAN liquid handler as per the scheme in FIG. 1. • 2. 16 μL of diluted compound was added to each well of the assay plate using TECAN liquid handler. • 3. 20 μL of substrate mix (biotinylated gastrin precursor) was added into each well of the assay plate manually. • 4. 10 μL of enzyme mix (FAK1) was added to each well except mins. • 5. The plate was incubated at rt for 45 min with shaking. • 6. The HTRF mix was prepared and 75 μL was added to the HTRF plate. • 7. After the incubation was over, 10 μL of the mixture was transferred to the HTRF assay plate and incubated for 45 min at rt with shaking. • 8. The readings were taken in Pherastar in HTRF mode (ext 337 nm, em 665 & 620 nm) • 9. The results were analyzed using Graphpad Prism® software after calculation the z factor signal window and % inhibition. • 10. The IC50 was calculated.
(In general: In TR-FRET formats the signal depends on donor and acceptor labels being close together.)
Regarding `COc1cc(Nc2cc3c(ccn3Cc3cccnc3)cn2)cc(OC)c1OC` [Example 6], the IC50 – broadly, the concentration that gives 50% inhibition – is over 1 µM.
The value for `O=S(=O)(c1ccc(Nc2cc3c(ccn3Cc3cccnc3)cn2)cc1)C(F)F` [Example 8] was over 1 µM; that for `O=S(=O)(c1ccc(Nc2ncc3ccn(Cc4ccccc4OC(F)F)c3n2)cc1)C(F)F` [Example 9] was over 1 µM; that for `CSc1cccc(Nc2ncc3cnn(Cc4cccnc4)c3n2)c1` [Example 10] was over 1 µM.
Next, `CSc1cccc(Nc2cc3c(ccn3Cc3cccnc3)cn2)c1` [Example 13]: over 1 µM.
Next, `O=C1CCc2cc(Nc3ncc4cnn(Cc5cccnc5)c4n3)ccc2N1` [Example 14]: over 1 µM.
`c1cncc(Cn2ccc3cnc(Nc4ccc5ncsc5c4)cc32)c1` [Example 15]: the IC50 is over 1 µM.
Take `FC(F)(F)c1cccc(Nc2cc3c(ccn3Cc3cccnc3)cn2)c1` [Example 16]: the IC50 was over 1 µM.
Turning to `O=S(=O)(c1ccc(Nc2ncc3ccn(Cc4cccnc4)c3n2)cc1)C(F)F` [Example 17], the IC50 was over 1 µM.
`O=S(=O)(c1ccc(Nc2cc3c(ccn3Cc3ccccc3OC(F)F)cn2)cc1)C(F)F` [Example 19]: the IC50 is over 1 µM.
Next, `CN(c1ncccc1Cn1ccc2cnc(Nc3ccc(C#N)nc3)cc21)S(C)(=O)=O` [Example 22]: over 1 µM; `CN(c1ncccc1Cn1ccc2cnc(Nc3ccc(S(=O)(=O)C(F)F)cc3)cc21)S(C)(=O)=O` [Example 25]: over 1 µM; `CC(=O)Nc1cccc(Nc2cc3c(ccn3-c3ccccn3)cn2)c1` [Example 37]: over 1 µM.
Next, `O=C1CCc2cc(Nc3ncc4ccn(S(=O)(=O)c5ccc(OC(F)(F)F)cc5)c4n3)ccc2N1` [Example 41]: over 1 µM.
For the compound `CC(=O)Nc1cccc(Nc2ncc3ccn(S(=O)(=O)c4ccc(OC(F)(F)F)cc4)c3n2)c1` [Example 44], the IC50 is over 1 µM.
The value for `CC(=O)Nc1cccc(Nc2cc3c(ccn3S(=O)(=O)c3ccc(OC(F)(F)F)cc3)cn2)c1` [Example 46] was over 1 µM; that for `CC(=O)Nc1ccc(Nc2cc3c(ccn3S(=O)(=O)c3ccc(OC(F)(F)F)cc3)cn2)cc1` [Example 47] was over 1 µM; that for `O=C1CCc2cc(Nc3cc4c(ccn4S(=O)(=O)c4ccc(OC(F)(F)F)cc4)cn3)ccc2N1` [Example 48] was over 1 µM.
Turning to `O=S(=O)(c1ccc(OC(F)(F)F)cc1)n1ccc2cnc(Nc3ccc4ncsc4c3)cc21` [Example 49], the IC50 is over 1 µM.
Next, `CS(=O)(=O)c1ccc(Nc2cc3c(ccn3S(=O)(=O)c3cccc(OC(F)(F)F)c3)cn2)cc1` [Example 51]: over 1 µM.
On to `COc1ccc(Nc2cc3c(ccn3S(=O)(=O)c3cccc(OC(F)(F)F)c3)cn2)cc1` [Example 53], for which the IC50 was over 1 µM.
As to `CS(=O)(=O)c1ccc(Nc2cc3c(ccn3S(=O)(=O)c3ccccc3OC(F)(F)F)cn2)cc1` [Example 57], the IC50 is over 1 µM.
For `CC(=O)Nc1cccc(Nc2cc3nn(Cc4ccccc4OC(F)F)cc3cn2)c1` [Example 63], the IC50 is over 1 µM.
`O=C1CCc2cc(Nc3cc4nn(Cc5ccccc5OC(F)F)cc4cn3)ccc2N1` [Example 67]: the IC50 was over 1 µM.
Next, `CC(=O)Nc1cccc(Nc2cc3c(cn2)c(C)nn3Cc2cccnc2N(C)S(C)(=O)=O)c1` [Example 68]: over 1 µM.
Consider `CC(=O)Nc1ccc(Nc2cc3c(cn2)c(C)nn3Cc2cccnc2N(C)S(C)(=O)=O)nc1` [Example 70], for which the IC50 was over 1 µM.
Next, `CC(=O)Nc1ccccc1Nc1ncc2ccn(Cc3cccnc3N(C)S(C)(=O)=O)c2n1` [Example 71]: over 1 µM; `CC(=O)Nc1ccc(Nc2cc3c(cn2)c(C)nn3Cc2cccnc2N(C)S(C)(=O)=O)cc1` [Example 72]: over 1 µM; `CN(c1ncccc1Cn1ccc2cnc(Nc3ccc4c(c3)C(=O)NC4=O)nc21)S(C)(=O)=O` [Example 74]: over 1 µM.
Next, `O=C1CCc2cc(Nc3ncc4ccn(Cc5ccccc5OC(F)(F)F)c4n3)ccc2N1` [Example 83]: under 0.02 µM; `CC(=O)Nc1cccc(Nc2cc3c(cn2)c(C)nn3S(=O)(=O)c2ccccc2OC(F)(F)F)c1` [Example 88]: over 1 µM.
On to `O=S(=O)(c1ccccc1OC(F)(F)F)n1ncc2cnc(Nc3ccc4ncsc4c3)cc21` [Example 89], for which the IC50 was over 1 µM.
`CC(=O)Nc1cccc(Oc2ncc3ccn(Cc4cccnc4N(C)S(C)(=O)=O)c3n2)c1` [Example 124]: the IC50 was over 1 µM.
For the compound `CNc1ccc(Nc2ncc3ccn(Cc4cccnc4N(C)S(C)(=O)=O)c3n2)cc1` [Example 156], the IC50 was under 0.02 µM.
On to `O=C1CCc2cc(Nc3cc4c(cn3)cnn4S(=O)(=O)c3cccc4cccnc34)ccc2N1` [Example 187], for which the IC50 was under 0.02 µM.
Regarding `CN(c1ccccc1Cn1ncc2cnc(Nc3ccc(N4CCNCC4)cc3)cc21)S(C)(=O)=O` [Example 222], the IC50 was under 0.02 µM.
Take `Cn1cnc(S(=O)(=O)n2ccc3cnc(Nc4ccc(N5CCNCC5)cc4)nc32)c1` [Example 236]: the IC50 is over 1 µM.
Next, `O=S(=O)(C1CCCC1)n1ccc2cnc(Nc3ccc(N4CCNCC4)cc3)nc21` [Example 238]: over 1 µM.
The value for `CN(c1ccccc1Cn1ccc2cnc(Nc3ccc(N4CCNCC4)c(F)c3)cc21)S(C)(=O)=O` [Example 322] was under 0.02 µM; that for `CC(C)C(=O)Nc1ccc(Nc2ncc3ccn(S(=O)(=O)c4cccc5cccnc45)c3n2)cc1` [Example 324] was under 0.02 µM; that for `CN(c1ccccc1Cn1ccc2cnc(Nc3ccc(N4CCNCC4)cc3)cc21)S(C)(=O)=O` [Example 325] was under 0.02 µM.
The value for `O=S(=O)(c1cccc2cccnc12)n1ncc2cnc(Nc3ccc(N4CCN(CCO)CC4)cc3)cc21` [Example 351] was under 0.02 µM.
Take `O=C(C1CC1)N1CCN(c2ccc(Nc3cc4c(cn3)cnn4S(=O)(=O)c3cccc4cccnc34)cc2)CC1` [Example 352]: the IC50 is under 0.02 µM.
Consider `COc1cc(Nc2ncc3ccn(S(=O)(=O)c4cccc5cccnc45)c3n2)ccc1NC(=O)C1CCC1` [Example 373], for which the IC50 was under 0.02 µM.
`COc1cc(Nc2ncc3ccn(S(=O)(=O)c4cccc5cccnc45)c3n2)ccc1NC(=O)C1CC1` [Example 376]: the IC50 is under 0.02 µM.
Next, `CN(c1ncccc1CN1C(=O)C(C)(C)c2cnc(Nc3ccc(N4CCNCC4)cc3)nc21)S(C)(=O)=O` [Example 380]: over 1 µM; `CC1(C)CN(S(=O)(=O)c2cccc3cccnc23)c2nc(Nc3ccc(N4CCNCC4)cc3)ncc21` [Example 403]: under 0.02 µM.
As for `O=S(=O)(c1cccc2cccnc12)n1ncc2cnc(Nc3ccc(N4CCOCC4)cc3)nc21` [Example 409], the IC50 was under 0.02 µM.
Next, `O=S(=O)(c1cccc2cccnc12)n1ccc2cnc(Nc3ccc(N4CCCC(CO)C4)cc3)nc21` (centres unmarked) [Example 425]: under 0.02 µM.
Next, `CN(c1ccccc1Cn1ccc2cnc(Nc3ccc(N4CCN5C(=O)CCC5C4)cc3)nc21)S(C)(=O)=O` (centres unmarked) [Example 436]: under 0.02 µM; `CN(c1ccccc1Cn1ccc2cnc(Nc3ccc(N4CCNCC4)c(F)c3)nc21)S(C)(=O)=O` [Example 438]: under 0.02 µM.
Next, `COc1cc(Nc2ncc3ccn(S(=O)(=O)c4cccc5cccnc45)c3n2)ccc1N1CC2CC1CN2C` (centres unmarked) [Example 439]: under 0.02 µM; `CN(c1ccccc1Cn1ccc2cnc(Nc3ccc(NC(=O)C4CC4)cc3)nc21)S(C)(=O)=O` [Example 450]: under 0.02 µM; `C[C@@H]1CN(c2ccc(Nc3ncc4c(n3)N(S(=O)(=O)c3cccc5cccnc35)CC4(C)C)cc2)CCN1` [Example 470, (R)-5,5-dimethyl-N-(4-(3-methylpiperazin-1-yl)phenyl)-7-(quinolin-8-ylsulfonyl)-6,7-dihydro-5H-pyrrolo[2,3-d]pyrimidin-2-amine]: under 0.02 µM.
Turning to `CNC(=O)Cc1ccccc1Cn1ccc2cnc(Nc3ccc(N4CCN(C)CC4)cc3)nc21` [Example 474], the IC50 was over 1 µM.
`CC(C)N1CCN(c2ccc(Nc3ncc4ccn(Cc5ccccc5N(C)S(C)(=O)=O)c4n3)cc2)CC1` [Example 484]: the IC50 was under 0.02 µM.

Source of the values: US20160222014A1, “COMPOUNDS FOR REGULATING FAK AND/OR SRC PATHWAYS” (ASANA BIOSCIENCES, LLC, priority 2013, published 2016).
